# In patent US7300503B2, “Dye mixture and ink containing the same, inkjet recording method and image forming method” (Fujifilm Corporation, priority 2004, dated 2007):
# Experiment: Color toner: light fastness of image
# Format: physicochemical
# Settings: xenon light 85,000 lx, 5 days, dye remaining ratio
# Method: A mixture of 3 parts by weight of each of the phthalocyanine compounds (Compounds 101, 102, 103 and 107) according to the invention and 100 parts by weight of a resin for toner (styrene-acrylate copolymer, trade name: Hymer TB-1000F, produced by Sanyo Chemical Industries, Ltd.) was pulverized in a ball mill and melt-blended by heating at 150° C. After cooling, the resulting solid was coarsely pulverized by a hammer mill and then finely pulverized by an air jet-type pulverizer. The particles were classified to select those having a particle size of 1 to 20 micrometer to prepare a toner. To 10 parts by weight of the toner, 900 parts by weight of carrier iron powder (trade name: FEV250/400, produced by Powdertech Co., Ltd.) was uniformly blended to prepare a developer. Each developer was prepared in the same manner as above except for using 3 parts by weight of dye or 6 parts by weight of pigment as a comparative coloring agent as shown in Table 7 below. Using the developer, duplicate was conducted by a dry type plain paper electrophotographic copying machine (trade name: NP-5000 produced by Canon Inc.).
# For the evaluation, by the developer using the color toner containing the compound according to the invention, a reflection image and a transmission image were prepared on paper and OHP sheet according to the above-described image forming method, respectively. The evaluation was conducted in the following manner. A toner adhesion amount was in a range of 0.7±0.05 mg/cm^2 for the evaluation.
# With the image formed, color tone and light fastness were evaluated. Regarding the color tone, the evaluation was visually conducted by a three-stage rating of best, good and poor. In Table 7, symbols ∘, Δ and × mean best color tone, good color tone and poor color tone, respectively. The light fastness was evaluated by measuring image density (Ci) just after the recording, irradiating the image with xenon light (85,000 1×) using Weatherometer (Atlas C. 165) for 5 days and then measuring again image density (Cf), and calculated a dye remaining ratio ([…]). The image density was measured by a reflection densitometer (X-Rite 310TR). In Table 7, symbols ∘, Δ and × mean the dye remaining ratio of 90% or more, the dye remaining ratio of less than 90% to 80% and the dye remaining ratio of less than 80%, respectively.
row,Compound,Light Fastness
1,CNc1ccc(O)c2c1C(=O)c1c(O)ccc(NC)c1C2=O [Comparative Dye 3],Δ (the dye remaining ratio of less than 90% to 80%)
2,Cc1ccc(Nc2ccc(Nc3ccc(C)cc3)c3c2C(=O)c2c(Nc4ccc(C)cc4)ccc(Nc4ccc(C)cc4)c2C3=O)cc1 [Comparative Dye 4],Δ (the dye remaining ratio of less than 90% to 80%)
3,C.I. Solvent Blue 38,∘ (the dye remaining ratio of 90% or more)
4,C.I. Solvent Blue 70,∘ (the dye remaining ratio of 90% or more)
